“And” between values parts separate entries of the source, which are not always exact repeats. Identical values can stand only once. Like-named read-outs stand apart in the source and are kept apart here.
What was measured:
[1] = system: multiple myeloma cell line U266B1; experiment: U266 Cell Viability Assay; type: cell-based, human; conditions: Homo sapiens, U-266, 48 h, U266B1 cells, Celltiter-Glo
Protocol: (§1) The human multiple myeloma cell line U266B1 was cultured in RPMI 1640 media supplemented with 10% fetal bovine serum, 2 mM Glutamine, and 1× Penicillin/Streptomycin. Cells were plated in 384-well tissue culture plates and treated with compound dilutions in DMSO/media. Plates were incubated at 37° C., 5% CO2 for 48 hours. After 48 hours, Celltiter-Glo® (Promega) was added to each well and luciferase signal was quantified using Tecan Infinite M1000 Pro for cell viability determination.
(§2) For chemical structures that include one or more stereoisomers, but are illustrated without indicating stereochemistry, the assay data refers to a mixture of stereoisomers.

[2] = Liver Microsome Stability Assay (mouse); conditions: mouse liver microsomes, with NADPH, 1.0 uM compound
Protocol: (§4) Stability of a compound was assessed in the presence of liver microsomes from various sources—mouse, rat, monkey and human liver microsomes. 1.0 uM compound, 0.4% DMSO in 0.1 M Potassium Phosphate with 1.0 mg/mL liver microsomes, were incubated at 37° C. with or without 1 mM NADPH. The samples were quenched at 0, and 30 minutes.

[3] = Liver Microsome Stability Assay (rat); conditions: rat liver microsomes, with NADPH, 1.0 uM compound
Protocol: as §4

[4] = Liver Microsome Stability Assay (human); conditions: human liver microsomes, with NADPH, 1.0 uM compound
Protocol: as §4

[5] = system: IL-2-FL/Gaussia Luciferase; experiment: Dox Induced IL2-FL-Gluc Assay; type: cell-based; conditions: for IC50: 24 hr Dox induction, 293FRT/TO cells, read-out: 24 hr Dox Inducible IL2FLGluc 293FRT/TO: Mean IC50; for 24 hr Dox Inducible IL2FLGluc 293FRT/TO: IL2/PD1: ratio of IL2FLGluc IC50 to PD1ssGluc IC50
Excerpt: (§3) Flp-In 293 T-REx™ cells were transfected with pcDNA™5/FRT/TO plasmid inserted with cDNA encoding Gaussia Luciferase fused to the 3′ end of cDNA encoding full length IL-2 (amino acids 1-153). Transfected cells were selected for resistance to the selectable markers Hygromycin and Blasticidin to create a stable cell line that contained the IL-2-FL/Gaussia Luciferase cDNA insert whose expression was regulated under the T-REx™ system. The day before assay, cells were trypsinized and plated in 384-well tissue culture plates. The next day, compound dilutions in DMSO/media containing doxycycline were added to the wells and incubated at 37° C., 5% CO2.
as §2

[6] = Liver Microsome Stability Assay (monkey); conditions: monkey liver microsomes, with NADPH, 1.0 uM compound
Protocol: as §4

[7] = system: multiple myeloma cell line NCI-H929; experiment: H929 Cell Viability Assay; type: cell-based, human; conditions: NCI-H929 cells, Celltiter-Glo
Protocol: as §1, with “NCI-H929” for “U266B1”, “cultured in Advanced RPMI 1640 media (Gibco®) supplemented with 6% fetal bovine serum, 2 mM Glutamine, and 1× Penicillin/Streptomycin. On the day of assay, cells were resuspended” for “cultured”, “Penicillin/Streptomycin and” for “Penicillin/Streptomycin. Cells were”
as §2

[8] = system: PD1-ss+10aa/Gaussia Luciferase; experiment: Dox-Induced PD1-ss-Gluc Assay; type: cell-based; conditions: 24 hr Dox induction, 293FRT/TO cells, read-out: 24 hr Dox Inducible PD1ssGluc 293FRT/TO: Mean IC50
Excerpt: as §3, with “PD1 signal sequence plus 10 amino” for “full length IL-2 (amino”, “(N-[…]-C) (SEQ ID NO: 1).” for “1-153).”, “PD1-ss+10aa/Gaussia” for “IL-2-FL/Gaussia”
as §2

[9] = system: TNFα-FL/Gaussia Luciferase; experiment: Dox Induced TNFα-FL-Gluc Assay; type: cell-based
Excerpt: as §3, with “TNFα” for “IL-2”, “1-233).” for “1-153).”, “TNFα-FL/Gaussia” for “IL-2-FL/Gaussia”
as §2

[10] = '<=>' given where both are I.A.

SMILES | EC50 [1] [µM] | Liver Microsome Stability (Multiple Species): Mouse - % Remaining after 30 min w/NADPH [2] | Liver Microsome Stability (Multiple Species): Rat - % Remaining after 30 min w/NADPH [3] | Liver Microsome Stability (Multiple Species): Human - % Remaining after 30 min w/NADPH [4] | IC50 [5] [µM] | 24 hr Dox Inducible IL2FLGluc 293FRT/TO: IL2/PD1 [5] | Liver Microsome Stability (Multiple Species): Monkey - % Remaining after 30 min w/NADPH [6] [%] | EC50 ([7]; Homo sapiens, NCI-H929, 48 h) [µM] | IC50 [8] [µM] | IC50 ([5]; mean) [µM] | IC50 ([8]; mean) | 24 hr Dox Inducible IL2FLGluc 293FRT/TO: IL2/PD1 [5, 10] | EC50 ([7]; 48 hr) [µM] | IC50 ([9]; 24 hr Dox induction, 293FRT/TO cells, mean, read-out: 24 hr Dox Inducible TNFaFLGluc 293FRT/TO: Mean IC50) [µM] | 24 hr Dox Inducible TNFaFLGluc 293FRT/TO: TNF/PD1 ([9]; ratio of TNFaFLGluc IC50 to PD1ssGluc IC50, '<=>' given where both are I.A.)
O=C(Nc1nc([C@H]2CCCN2c2ccc(-c3ncco3)cc2)cs1)c1cccn1Cc1ccncc1 [Compound A9, (R)-N-(4-(1-(4-(oxazol-2-yl)phenyl)pyrrolidin-2-yl)thiazol-2-yl)-1-(pyridin-4-ylmethyl)-1H-pyrrole-2-carboxamide] | > 25 | 19.8% | 0.8% | 0.71% | 0.0171 | 2.4 | 0.23 | 0.519 | 0.00722 |  |  |  |  |  | 
O=C(O)c1ccc(N2CCC[C@@H]2c2csc(NC(=O)c3cccn3Cc3ccncc3)n2)cc1 [Compound A13] | > 25 | 6.8% | 5.37% | 1.91% | > 25 | >1.2 | 0.39 | > 25 | 20.7 |  |  |  |  |  | 
CC1=NC(C)(/C=C/c2csc(NC(=O)c3cccn3Cc3ccncc3)n2)CO1 (stereo not drawn) [Compound B16] | > 25 | 196% | 137% |  | > 25 | >6.3 | 110 | > 25 | 3.99 |  |  |  |  |  | 
O=C(Nc1nc([C@H]2CCCN2c2ccccc2)cs1)c1cccn1CC1CCC(F)(F)CC1 [Compound C21, (R)-1-((4,4-difluorocyclohexyl)methyl)-N-(4-(1-phenylpyrrolidin-2-yl)thiazol-2-yl)-1H-pyrrole-2-carboxamide] | > 25 | 60.5% | 12.2% | 64% |  |  | 49 | > 25 |  | > 25 | > 25 µM |  |  |  | 
O=C(Nc1nc([C@H]2CCCN2c2ccccc2)cs1)c1cccn1CCCc1c[nH]nn1 [Compound C27, (R)-1-(3-(1H-1,2,3-triazol-5-yl)propyl)-N-(4-(1-phenylpyrrolidin-2-yl)thiazol-2-yl)-1H-pyrrole-2-carboxamide] | > 25 | 4.86% | 1.26% | 3.25% |  |  | 3.74 | 23.9 |  | 2.63 | 0.671 µM | 3.9 |  |  | 
O=C(Nc1nc([C@H]2CCCN2c2ccccc2)cs1)c1cccn1Cc1cnn[nH]1 [Compound C29, (R)-1-((1H-1,2,3-triazol-5-yl)methyl)-N-(4-(1-phenylpyrrolidin-2-yl)thiazol-2-yl)-1H-pyrrole-2-carboxamide] | > 25 | 37.5% | 17% | 46.1% |  |  | 41.9 | > 25 |  | > 25 | 4.89 µM | >5.1 |  |  | 
CO[C@@H](CC#N)Cn1cccc1C(=O)Nc1nc([C@H]2CCCN2c2ccccc2)cs1 [Compound C97, 1-((S)-3-cyano-2-methoxypropyl)-N-(4-((R)-1-phenylpyrrolidin-2-yl)thiazol-2-yl)-1H-pyrrole-2-carboxamide] | > 25 | 3.9% and 3.33% | 5.97% and 7.43% | 4.81% and 6.52% |  |  |  | 25 |  |  | 3 µM and 4.65 µM | 2.1 and > 3.6 | 23.6 | > 25 | > 8.34 and > 5.37
O=C(Nc1nc([C@H]2CCCN2c2ccccc2)cs1)c1cccn1Cc1ccnc(F)c1 [Compound E26, (R)-1-((2-fluoropyridin-4-yl)methyl)-N-(4-(1-phenylpyrrolidin-2-yl)thiazol-2-yl)-1H-pyrrole-2-carboxamide] | > 25 |  |  |  |  |  |  | 0.762 |  | 0.0229 | 0.00953 µM | 2.4 |  |  | 
O=C(NC/C=C/c1csc(NC(=O)c2cccn2Cc2ccncc2)n1)c1ccccc1 [Compound E54, (E)-N-(4-(3-benzamidoprop-1-en-1-yl)thiazol-2-yl)-1-(pyridin-4-ylmethyl)-1H-pyrrole-2-carboxamide] |  | 1.05% | 6.61% | 0.37% |  |  | 0.17 |  |  |  |  |  |  |  | 
CC(C)c1cccnc1/C=C/c1csc(NC(=O)c2cccn2Cc2ccncc2)n1 [Compound E56, (E)-N-(4-(2-(3-isopropylpyridin-2-yl)vinyl)thiazol-2-yl)-1-(pyridin-4-ylmethyl)-1H-pyrrole-2-carboxamide] | > 25 |  |  |  |  |  |  | 21.5 |  | 4.36 | 0.0916 µM | 48 |  |  | 
CC(C)c1ccc(/C=C/c2csc(NC(=O)c3cccn3Cc3ccncc3)n2)nc1 [Compound E57, (E)-N-(4-(2-(5-isopropylpyridin-2-yl)vinyl)thiazol-2-yl)-1-(pyridin-4-ylmethyl)-1H-pyrrole-2-carboxamide] | 9.51 |  |  |  |  |  |  | 6.9 |  | 2.16 | 0.00967 µM | 220 |  |  | 

— US20230286973A1, “PROTEIN SECRETION INHIBITORS” (KEZAR LIFE SCIENCES, priority 2020, published 2023)
